{"source": "patent US6794347B2", "about": "“Process of making gel detergent compositions” (Unilever Home & Personal Care USA a division of Conopco, …, priority 2002, dated 2004)", "origin": "cited, not measured here", "note": "Like-named read-outs stand apart in the source and are kept apart here.", "data": [{"smiles": "CCCCCCCCCCCCCCCC(=O)O", "note": "[Fatty acid chain length 16]", "values": [{"measurement": "Measured pKa value", "setting": "Cited from Langmuir, Vol 16, pp 172-177, 2000", "result": "8.6˜8.8"}, {"measurement": "Measured pKa value", "setting": "Cited from Proc. R. Soc. London, A133, 140, 1931", "result": 8.5}]}]}
